Experimental data reported in patent publication US10774082B2, “Quinazoline compound” (Astellas Pharma Inc., priority 2017, dated 2020).
Where two headings read alike, the source gives them in different places.

Experiments:
pERK in NCI-H1373 tumor = test: Intratumoral pERK inhibitory action in NCI-H1373 tumor of nude mice (TR-FRET); format: in vivo, mouse; details: for inhibition at 3 mg/kg: read-out: pERK inhibition (%); for inhibition at 10 mg/kg / pERK inhibition (%): 10 mg/kg
Experimental: Evaluation of Intratumoral pERK Inhibitory Action
The phosphorylation amount of ERK in tumor sample after administration of test compound was examined by using pERK measurement kit (Advanced ERK phospho-T202/Y204 kit, Cisbio co., Ltd) through a TR-FRET method.
2.0 to 5.0×10^6 NCI-H1373 cells were prepared by using a solution in which an equivalent amount of Matrigel (Becton. Dickinson and Company) was added to PBS, were injected subcutaneously in a volume of 100 μL and planted to male nude mice of 4-5 weeks old (CAnN.Cg-Foxn 1 nu/CrlCrlj (nu/nu), Charles River Laboratories Japan, Inc.), and then the male nude mice were used for the test 15 to 26 days later. The test was conducted with three mice in a solvent group and three mice in a test compound administration group, and the test compounds were prepared by using a solvent such that the dosage thereof is as indicated in Table 4. The test compound was administered subcutaneously or orally. For subcutaneous administration, physiological saline supplemented with equimolar hydrochloric acid was used as a solvent. For oral administration, 6% 2-hydroxypropyl-β-cyclodextrin (Sigma-Aldrich Co. LLC) was used as a solvent. Six hours after the administration, a tumor was excised from a cervical dislocated mouse under isoflurane anesthesia, and a part thereof was put into a 2 mL Eppendorf tube and frozen using liquid nitrogen. The tumor sample was stored in a deep freezer at −80° C. until it was subjected to the pERK measurement test.
500 μL of lysis buffer 1 (Phospholysis buffer [Cisbio Co., Ltd], Complete EDTA free [Roche Diagnostics K.K.], Phosphatase inhibitor cocktail 2 [Sigma-Aldrich Co. LLC]) and one bead (5 mm YTZ ball [Nikkato Corp.]) was added to the tumor sample, and crushed (frequency 25/s for 3 minutes) by using Tissue Lyser II (QIAGEN GmbH). The whole amount was transferred to a new tube and centrifuged (20,400×g for 10 minutes, 4° C.) by using a micro amount high speed cooling centrifuge so as to obtain a tumor lysate which is a supernatant. Protein quantification of tumor lysate was performed by using a protein quantification kit (Pierce 660 nm Protein Assay Kit [Thermo Fisher Scientific Inc.]), and each sample was diluted by using lysis buffer 2 (Phosphorysis buffer [Cisbio Co., Ltd], Blocking Agent [attached to pERK measurement kit]) such that the amount thereof is to be a final concentration of 0.5 μg/μL.
Each of p-ERK1/2 Cryptate antibody and p-ERK1/2 d2 antibody (attached to pERK measurement kit) was diluted 20-fold with each detection buffer (attached to pERK measurement kit), and thereby a mixed solution of these two types of antibodies was prepared. A mixed solution of antibody was added to a 384 well plate at a volume of 4 μL/well. Further, tumor lysate diluted to 0.5 μg/μL was added at a volume of 16 μL/well. After standing at room temperature in a wet box for about 17 hours, the fluorescence intensity at 620 nm and 665 nm was measured under the condition of excitation wavelength of 337 nm by using EnVision 2103 Multilabel Reader (PerkinElmer Co., Ltd.).

[1] = target: T1, KRAS G12C/SOS/c-Raf complex (Homo sapiens, UniProt P01116, G12C); test: KRAS G12C/SOS/c-Raf complex formation inhibitory action (TR-FRET); format: biochemical; details: one hour at room temperature, read-out: IC50 (KRAS G12C/SOS/c-Raf complex formation inhibition)
T1 construct: Biotinylated AviTag-KRAS G12C (amino acid region 1-185, GDP)
T1 sequence (P01116 1-185 isoform P01116-2 G12C, one chain of several): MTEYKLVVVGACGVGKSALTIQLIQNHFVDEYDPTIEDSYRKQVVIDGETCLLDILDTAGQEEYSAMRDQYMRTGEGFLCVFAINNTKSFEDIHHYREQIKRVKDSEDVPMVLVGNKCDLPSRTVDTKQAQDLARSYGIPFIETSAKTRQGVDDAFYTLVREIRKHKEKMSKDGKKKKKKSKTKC
Outline: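 Biotin-AviTag KRAS G12C (1-185, GDP-bound) was mixed with compound (4,000 to 4 nM stock dilutions), SOS (564-1049), GST-c-Raf (51-131) and GTP in pH 7.4 HEPES/NaCl/MgCl2/Tween buffer for 1 h at room temperature. Complex formation was read by TR-FRET with Eu-streptavidin and ULight-anti-GST (ex 337 nm, em 620/665 nm).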

[2] = Mus musculus, NCI-H1373, po, 6 h, Oral administration, tumor six hours after administration
[3] = Mus musculus, NCI-H1373, sc, 6 h, Subcutaneous administration, tumor six hours after administration
[4] = Mus musculus, NCI-H1373, sc, 6 h
[5] = Oral administration, tumor six hours after administration

Compound | IC50 [1] | inhibition at 10 mg/kg (pERK in NCI-H1373 tumor; [2]) | also measured
C=CC(=O)N1CCN(c2nc(OC3CCN(C)CC3)nc3c(F)c(-c4c(C)ccc5[nH]ncc45)c(Cl)cc23)CC1 [Compound C, reference compound] | 68 nM |  | inhibition at 30 mg/kg (pERK in NCI-H1373 tumor; Mus musculus, NCI-H1373, sc, 6 h, Subcutaneous administration, 30 mg/kg, tumor six hours after administration): 54%
C=CC(=O)N1CC2(CCN(c3nc(OC4CCN(C)CC4)nc4c(OCC)c(-c5c(C)ccc6[nH]ncc56)c(C5CC5)cc34)CC2)C1 [Ex 2] | 37 nM |  | inhibition at 1 mg/kg (pERK in NCI-H1373 tumor; [3]): 54%
C=CC(=O)N1CC2(CCN(c3nc(OC4CCN(CCOC)CC4)nc4c(OCC(F)(F)F)c(-c5c(C)ccc6[nH]ncc56)c(C5CC5)cc34)CC2)C1 [Ex 25] | 48 nM | 66% | 
C=CC(=O)N1CC2(CCN(c3nc(OC4CCN(CCOC)CC4)nc4c(OCC(F)(F)F)c(-c5c(C)ccc6[nH]ncc56)c(C=C)cc34)CC2)C1 [Ex 26] | 41 nM | 50% | 
C=CC(=O)N1CC2(CCN(c3nc(OC4CCN(CCCOC)CC4)nc4c(OCC(F)(F)F)c(-c5c(C)ccc6[nH]ncc56)c(C5CC5)cc34)CC2)C1 [Ex 28] | 38 nM | 46% | 
C=CC(=O)N1CC2(CCN(c3nc(OC4CCN(C5CCOCC5)CC4)nc4c(OCC(F)(F)F)c(-c5c(C)ccc6[nH]ncc56)c(C=C)cc34)CC2)C1 [Ex 30] | 45 nM | 56% | 
C=CC(=O)N1CC2(CCN(c3nc(OC[C@@H]4CCCN4C)nc4c(OC5CCC5)c(-c5c(C)ccc6[nH]ncc56)c(C=C)cc34)CC2)C1 [Example 15] | 52 nM |  | inhibition at 3 mg/kg (pERK in NCI-H1373 tumor; [4]): 53%
C=CC(=O)N1CC2(CCN(c3nc(OC[C@@H]4CCCN4C)nc4c(OCC)c(-c5c(C)ccc6[nH]ncc56)c(C=C)cc34)CC2)C1 [Example 16] | 45 nM |  | inhibition at 3 mg/kg (pERK in NCI-H1373 tumor; [4]): 51%
C=CC(=O)N1CC2(CCN(c3nc(OC4CCN(CCOCC)CC4)nc4c(OCC(F)(F)F)c(-c5c(C)ccc6[nH]ncc56)c(C=C)cc34)CC2)C1 [Example 29] | 49 nM | 62% | 
C=CC(=O)N1CC2(CCN(c3nc(OC4CCN(CCOC)CC4)nc4c(OCC(F)F)c(-c5c(C)ccc6[nH]ncc56)c(C5CC5)cc34)CC2)C1 [Example 32] | 39 nM | 55% | 
C=CC(=O)N1CC2(CCN(c3nc(OC4CCN(C5COC5)CC4)nc4c(OCC(F)(F)F)c(-c5c(C)ccc6[nH]ncc56)c(C=C)cc34)CC2)C1 [Example 33] | 44 nM | 71% | 
C=CC(=O)N1CC2(CCN(c3nc(N4CCN(C)CC4)nc4c(OCC(F)(F)F)c(-c5c(C)ccc6[nH]ncc56)c(C=C)cc34)CC2)C1 [Example 50] | 50 nM | 63% | 
C=CC(=O)N1CC2(CCN(c3nc(OC4CCN(C)CC4F)nc4c(OCC(F)(F)F)c(-c5c(C)ccc6[nH]ncc56)c(C=C)cc34)CC2)C1 (stereo not drawn) [Example 52] | 56 nM | 68% | 
C=CC(=O)N1CC2(CCN(c3nc(OC4CCN(Cc5ccccn5)CC4)nc4c(OCC(F)(F)F)c(-c5c(C)ccc6[nH]ncc56)c(C=C)cc34)CC2)C1 [Example 56] | 63 nM | 53% | 
C=CC(=O)N1CC2(CCN(c3nc(N4CC(N(C)C)C4)nc4c(OCC(F)(F)F)c(-c5c(C)ccc6[nH]ncc56)c(C=C)cc34)CC2)C1 [Example 65] | 46 nM | 68% | 

The remaining compounds from weak to strong by IC50 [1], led by results:

IC50 [1] | Compound | inhibition at 10 mg/kg (pERK in NCI-H1373 tumor; [2]) | also measured
36 nM | C=CC(=O)N1CC2(CCN(c3nc(OC4CCN(C5COC5)CC4)nc4c(OCC)c(-c5c(C)ccc6[nH]ncc56)c(C5CC5)cc34)CC2)C1 [Example 34] | 54% | 
35 nM | C=CC(=O)N1CC2(CCN(c3nc(OC[C@@H]4CCCN4C)nc4c(OCC(F)F)c(-c5c(C)ccc6[nH]ncc56)c(C5CC5)cc34)CC2)C1 [Ex 4] |  | inhibition at 1 mg/kg (pERK in NCI-H1373 tumor; [3]): 58%
33 nM | C=CC(=O)N1CC2(CCN(c3nc(OC4CCN(CC)CC4)nc4c(OCC)c(-c5c(C)ccc6[nH]ncc56)c(C=C)cc34)CC2)C1 [Ex 7] |  | inhibition at 3 mg/kg (pERK in NCI-H1373 tumor; Mus musculus, NCI-H1373, sc, 6 h, Subcutaneous administration, 3 mg/kg, tumor six hours after administration): 59%
29 nM | C=CC(=O)N1CC2(CCN(c3nc(OC4CCN(C)CC4)nc4c(OCC(F)F)c(-c5c(C)ccc6[nH]ncc56)c(C5CC5)cc34)CC2)C1 [Ex 3] |  | inhibition at 1 mg/kg (pERK in NCI-H1373 tumor; [3]): 57%
21 nM | C=CC(=O)N1CC2(CCN(c3nc(OC4CCN(C)CC4)nc4c(OCC)c(-c5c(C)ccc6[nH]ncc56)c(C=C)cc34)CC2)C1 [Ex 24] |  | inhibition at 40 mg/kg (pERK in NCI-H1373 tumor; Mus musculus, NCI-H1373, po, 6 h, Oral administration, 40 mg/kg, tumor six hours after administration): 72%
17 nM | C=CC(=O)N1CC2(CCN(c3nc(OC4CCN(CCOC)CC4)nc4c(OCC(F)(F)F)c(-c5c(C)ccc6[nH]ncc56)c(C5CC5)cc34)CC2)C1 [Example 35] |  | pERK inhibition (%) (pERK in NCI-H1373 tumor; [5]): 68%
17 nM | C=CC(=O)N1CC2(CCN(c3nc(OC4CCN(CCOCC)CC4)nc4c(OCC(F)(F)F)c(-c5c(C)ccc6[nH]ncc56)c(C=C)cc34)CC2)C1 [Example 37] |  | pERK inhibition (%) (pERK in NCI-H1373 tumor; [5]): 63%
15 nM | C=CC(=O)N1CC2(CCN(c3nc(OC4CCN(CC(C)(C)O)CC4)nc4c(OCC(F)(F)F)c(-c5c(C)ccc6[nH]ncc56)c(C=C)cc34)CC2)C1 [Example 40] |  | pERK inhibition (%) (pERK in NCI-H1373 tumor; [5]): 58%
14 nM | C=CC(=O)N1CC2(CCN(c3nc(OC4CCN(C5CCOCC5)CC4)nc4c(OCC(F)(F)F)c(-c5c(C)ccc6[nH]ncc56)c(C=C)cc34)CC2)C1 (single isomer, unassigned) [Ex 39] | 43% | 
